# From paper PMC3956373, “Suppression of type 1 pilus assembly in uropathogenic Escherichia coli by chemical inhibition of subunit polymerization” (Journal of Antimicrobial Chemotherapy, 2013)
# pIC50: −log10 of the molar value.
# Molecular target: T1, FimH (Escherichia coli, UniProt P08191)
# T1 construct: with FimC (C-terminal His tag); FimG Nte peptide in the assay
# Test: SDS-PAGE donor strand exchange assay with purified FimChis:FimH ([…]) and FimG Nte peptide ([…]), concentration-response
# Assay type: biochemical
# T1 sequence (P08191 22-300): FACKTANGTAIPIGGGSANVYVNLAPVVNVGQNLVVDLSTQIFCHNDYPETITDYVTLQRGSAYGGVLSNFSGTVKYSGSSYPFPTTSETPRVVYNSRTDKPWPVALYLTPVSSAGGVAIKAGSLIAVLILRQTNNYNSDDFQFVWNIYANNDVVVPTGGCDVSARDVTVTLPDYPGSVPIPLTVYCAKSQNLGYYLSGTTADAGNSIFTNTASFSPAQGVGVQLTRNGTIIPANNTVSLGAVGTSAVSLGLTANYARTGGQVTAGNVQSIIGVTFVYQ
# T1 sequence (P31697 37-241, further chain): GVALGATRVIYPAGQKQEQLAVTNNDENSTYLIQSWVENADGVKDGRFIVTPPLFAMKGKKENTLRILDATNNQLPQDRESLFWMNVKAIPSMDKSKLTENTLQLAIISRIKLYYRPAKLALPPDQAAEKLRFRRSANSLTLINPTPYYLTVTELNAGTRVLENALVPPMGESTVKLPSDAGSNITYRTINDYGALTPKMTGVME
# T1 sequence (P08190 24-167, further chain): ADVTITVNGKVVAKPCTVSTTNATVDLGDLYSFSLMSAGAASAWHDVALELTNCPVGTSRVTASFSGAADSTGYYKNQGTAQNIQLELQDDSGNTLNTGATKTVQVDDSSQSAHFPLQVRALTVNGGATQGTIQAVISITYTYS
smiles,measurement,value
"O=C(CSc1nnc(-c2ccc(S(=O)(=O)N3CCCC3)cc2)o1)Nc1ccc(Cl)cc1 [AL1, N-(4-chloro-phenyl)-2-{5-[4-(pyrrolidine-1-sulfonyl)-phenyl]-[1,3,4]oxadiazol-2-ylsulfanyl}-acetamide]",pIC50,3.54
